Results reported in PubChem BioAssay AID504322 (Emory University Molecular Libraries Screening Center, 2011).
Calls of active or inactive are those of the source. How the calls were made is not given here.

system: CHOP reporter cell assay, percent of control; test: CHOP reporter inhibitor potency, dose response, cell-based (AID 504322);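 further: CHO cells carrying a CHOP reporter stimulated with tunicamycin to induce ER stress; potency is for inhibition of the stress-induced reporter signal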

SMILES	IC50
Fc1cccc(-c2nnn3c2nc(Cl)c2ccccc23)c1	7.37 µM (inactive)
CCCCn1c(/N=C/c2c[nH]c3ccccc23)nc2ccccc21	6.06 µM (inactive)
Cc1ccc(OCC(=O)N2N=C(C(F)(F)F)CC2(O)C(C)(C)C)cc1C (stereo unspecified)	5.25 µM (inactive)
O=C1/C(=C/c2ccncc2)SC(=S)N1C1CCS(=O)(=O)C1 (stereo unspecified)	9.91 µM (inactive)
O=[N+]([O-])c1cc(S(=O)(=O)C(F)(F)F)ccc1Sc1nc2ccccc2[nH]1	9.3 µM (inactive)
CCCC(=O)NC(NC(=S)Nc1ccc(N=Nc2ccccc2)cc1)C(Cl)(Cl)Cl (stereo unspecified)	7.31 µM
NC(=O)CC(NC(=O)Cc1cccc2ccccc12)c1ccc(NCCOc2ccccc2)c([N+](=O)[O-])c1 (stereo unspecified)	8.33 µM (inactive)
CCOc1cc(/C=C2/C(=O)ON=C2C)ccc1OCc1ccc(F)cc1	9.5 µM (inactive)
C=CCn1c(O)c(C(CC)=Nc2ccc(N(CC)CC)cc2)c(=O)[nH]c1=O	2.56 µM
CCOC(=O)C1=C(C)NC(C)=C(C(=O)OCC)C1/C=C/c1ccccc1	> 10 µM (inactive)
CC1=C(C)/C(=N\OS(=O)(=O)c2ccc(C)cc2)C=CC1=O	3.68 µM (inactive)
O=C(/C=C/c1ccccc1)Nc1cccc(C(=O)O)c1	3.59 µM (inactive)
COc1ccc(N=c2oc3ccc(OC)cc3cc2-c2nc3ccccc3[nH]2)cc1	9.72 µM (inactive)
O=C1C(Cl)=C(N2CCCCC2)C(=O)C(Cl)=C1c1cnc(N2CCCCC2)s1	9.7 µM (inactive)
COc1cccc(C(=O)C(C#N)=C(SC)SC)c1	> 10 µM (inactive)
CCN1/C(=C/C(C)=C/c2sc3ccccc3[n+]2CC)Sc2ccccc21	< 0.16 µM
Cc1ccc(-c2nc3cc(NS(=O)(=O)c4ccc(C)cc4)ccc3o2)cc1	5.63 µM (inactive)
Cc1ccc(-c2[nH]ncc2/C=N/n2c(COc3ccccc3)nc3ccccc3c2=O)cc1	3.18 µM (inactive)
COc1cccc(N2CCN(c3ncnc4c3[nH]c3ccccc34)CC2C)c1 (stereo unspecified)	4.13 µM
CC(C)C[C@H](NC(=O)OC(C)(C)C)c1nnc(SCC(=O)Nc2ccc(Br)cc2)o1	5.57 µM (inactive)
Cc1ccccc1CS(=O)(=O)c1nnc([C@H](CC(C)C)NC(=O)OC(C)(C)C)o1	4.63 µM
Cc1cc2c3c(c1)C(C)(c1ccccc1)CC(C)(C)N3C(=O)C21C(C#N)=C(N)OC2=C1C(=O)CC(C)(C)C2 (stereo unspecified)	> 10 µM (inactive)
Cc1nn(-c2ccccc2Cl)c(Cl)c1/C=N/Nc1nc2ccccc2s1	< 0.16 µM
CCOc1cc(NC(=O)CCl)c(OCC)cc1NC(=O)CCl	> 10 µM (inactive)

SMILES	IC50
Cc1ccc(C)c(NC(=S)NC(NC(=O)/C=C/c2ccccc2)C(Cl)(Cl)Cl)c1 (stereo unspecified)	9.63 µM (inactive)
CC[C@@H](C)[C@H](NC(=O)OC(C)(C)C)c1nnc(S(=O)(=O)Cc2cc(C)ccc2C)o1	> 10 µM (inactive)
OC(COCC(F)(F)C(F)(F)C(F)(F)C(F)F)Cn1c2ccccc2c2ccccc21 (stereo unspecified)	2.39 µM
Cc1nc(COC(=O)c2cc(O)c3ccccc3c2O)cs1	> 10 µM (inactive)
CC(C)(C)c1cc(S(=O)(=O)CCc2ccccn2)cc(C(C)(C)C)c1F	3.6 µM
CCn1c(C)nc2cc(-c3nnc(-c4c(-c5ccccc5)noc4C)o3)ccc21	8.88 µM (inactive)
CCOC(=O)c1cc([N+](=O)[O-])c([N+](=O)[O-])cc1NC(C)=O	4.24 µM
CC(C)=CCc1c(O)cc2oc3c(CC=C(C)C)c(O)c(O)c(CC=C(C)C)c3c(=O)c2c1O	9.67 µM (inactive)
Nc1ccc(SC(F)(F)F)cc1C(=O)c1ccccc1	4.97 µM
O=C(N/N=C/c1cccc(F)c1)c1c(O)c2ccccc2[nH]c1=O	6.48 µM (inactive)
CCN=C1NN=C(c2cc(C)n(Cc3ccco3)c2C)CS1	< 0.16 µM
N#CC1=C(N)N2C(=C(C#N)C1c1cccc(Br)c1)Nc1ccccc12 (stereo unspecified)	5.07 µM (inactive)
CCOc1cc(S(=O)(=O)Nc2ccc(CC)cc2)ccc1Cl	4.48 µM (inactive)
CC(C)(C)c1ccc(CN2N=Nc3ccccc3S2(=O)=O)cc1	9.3 µM (inactive)
COC(=O)c1ccc2c(=O)n(CCCCCC(=O)N3CCN(c4ccccc4)CC3)c(=O)[nH]c2c1	9.65 µM (inactive)
CCOc1cc(CNc2ccc(O)cc2)ccc1OCc1ccc(Cl)cc1Cl	1.72 µM
COc1ccc(NS(=O)(=O)c2ccc(O)c(NC(=O)c3cc4c(C)nn(-c5ccc(F)cc5)c4s3)c2)cc1	6.99 µM (inactive)
O=S1(=O)C=C(Sc2nnc(-c3ccccc3)o2)c2ccccc21	4.34 µM
CCCCCCCCCS(=O)(=O)N/N=C/c1cccc([N+](=O)[O-])c1	3.9 µM (inactive)
O=S(=O)(C/C(=C/CO)S(=O)(=O)c1ccccc1)c1ccccc1	> 10 µM (inactive)
O=C(OCn1ncc(Cl)c(Cl)c1=O)c1cccc(C(F)(F)F)c1	4.44 µM
FC(F)(F)c1cccc(NC(=S)NC(c2ccccc2)c2ccccc2)c1	9.54 µM (inactive)
O=C(OCn1ncc(Br)c(Br)c1=O)c1ccccc1Cl	2.84 µM
CC1CCc2cc(F)ccc2N1C(=O)CSc1nnc2c(n1)[nH]c1ccc(F)cc12 (stereo unspecified)	9.19 µM (inactive)

SMILES	IC50
O=C1C(C2=NC(c3ccccn3)C3C(=O)N(c4ccc(Cl)cc4Cl)C(=O)C23)=C(O)c2ccccc21 (stereo unspecified)	7.17 µM (inactive)
COc1ccccc1-n1cc([C@@H]2C[C@H]3CN(c4ccccc4)C(=O)[C@]34CCCN24)cn1	1.89 µM
Cc1cc(C)c(S(=O)(=O)c2ccccc2)c(OC(=O)c2cc(F)c(F)cc2Cl)n1	8.2 µM (inactive)
CCCCn1c(=O)c(C(=O)Nc2cnccn2)c(O)c2ccccc21	7.31 µM (inactive)
CC(C)(C)c1ccc(C(=O)Nc2ccc(CC(=O)O)cc2)o1	< 0.16 µM
Cn1ncc2c(O/N=C(\N)c3ccc(C(C)(C)C)cc3)ncnc21	4.27 µM
FC(F)C(F)(F)C(F)(F)C(F)(F)c1cc(-c2ccccc2)n[nH]1	9.67 µM (inactive)
O=C(c1nnsc1S(=O)(=O)c1ccc(Cl)cc1)N1CCOCC1	9.43 µM (inactive)
CCOc1cc(S(=O)(=O)Nc2ccccc2CC)ccc1Cl	7 µM (inactive)
CCCOc1ccccc1C1CC(=O)NC(C)=C1C(=O)OCC(C)C (stereo unspecified)	5.14 µM (inactive)
O=C(/C=C/c1cccc([N+](=O)[O-])c1)n1cnc2ccccc21	5.36 µM (inactive)
COc1ccc(OCc2cccc(C(=O)O)c2)cc1	0.87 µM
C=CS(=O)(=O)c1ccc(Oc2ccc(S(=O)(=O)C=C)cc2)cc1	1.7 µM
OC(CNCC(c1ccc(Cl)cc1Cl)c1c[nH]c2ccccc12)c1ccccc1 (stereo unspecified)	1.79 µM
CCOC(=O)c1c(C)[nH]c(C(=O)COC(=O)c2[nH]c(C)c(C(C)=O)c2C)c1C	> 10 µM (inactive)
Cc1cccc(N2CCN(C(=O)c3c(C)nn(Cc4ccccc4Cl)c3C)CC2)c1C	9.26 µM (inactive)
Cc1cccc(/C=C/C(=O)c2cc(Br)ccc(=O)c2O)c1	8.57 µM (inactive)
O=C(O)c1cccc(COc2ccc(CO)cc2Cl)c1	< 0.16 µM
CC(C)(C)OC(=O)CNC(=O)c1[nH]cnc1C(=O)Nc1ccc(Cl)cc1	4.69 µM (inactive)
CC1CCC(C(C)C)C(OC(=O)COC(=O)c2cc(O)ccc2N)C1 (stereo unspecified)	4.09 µM (inactive)
CC1(c2ccc(OC(F)F)cc2)NC(=O)N(/N=C/c2c(O)ccc3ccccc23)C1=O (stereo unspecified)	8.25 µM (inactive)
Cc1cccnc1NC(=O)c1c(O)c2ccccc2n(C)c1=O	> 10 µM (inactive)
CC1CCN(S(=O)(=O)c2ccc3c(c2)C(=NO)c2cc(S(=O)(=O)N4CCC(C)CC4)ccc2-3)CC1	0.32 µM
COc1ccccc1NCC(O)COc1ccc(C(C)(C)C)cc1 (stereo unspecified)	9.32 µM (inactive)

SMILES	IC50
CC1CCN(C(=O)/C(=C/c2ccccc2Cl)c2ccccc2)CC1	3.83 µM (inactive)
COc1ccc(NC(=O)/C(Cl)=C(/Cl)S(=O)Cc2ccccc2Cl)cn1 (stereo unspecified)	0.3 µM
CC1CCc2c(sc3ncn(CC(=O)N=Nc4c(O)[nH]c5ccccc45)c(=O)c23)C1 (stereo unspecified)	7.42 µM (inactive)
Fc1ccc(Nc2nc(NCc3ccco3)c3ccccc3n2)cc1	> 10 µM (inactive)
CC1=CCC[C@@H]2[C@@](C)(CC/C(C)=C/C(=O)O)[C@H](C)CC[C@@]12C	9.68 µM (inactive)
O=c1c(Cl)nc2cc(Cl)ccc2n1CCNc1ncc(C(F)(F)F)cc1Cl	2.49 µM
Cc1ccc2c(c1)c1c(n2CC(O)Cn2c(C)nc3ccccc32)CCCC1 (stereo unspecified)	6.68 µM (inactive)
Cc1ccc(NC(=O)NC(=O)CN2C(=O)NC3(CCCCCCC3)C2=O)c(C)c1	9.53 µM (inactive)
COC(=O)C(O)(c1ccc(NC(=S)NC(=O)c2ccc(Cl)cc2Cl)c(C)c1)C(F)(F)F (stereo unspecified)	9.05 µM (inactive)
Cc1cccc(NC(=O)/C(C#N)=C/c2cn(CC(=O)NCc3ccco3)c3ccccc23)c1C	> 10 µM (inactive)
Cc1ccccc1CS(=O)(=O)c1nnc([C@H](Cc2ccccc2)NC(=O)OC(C)(C)C)o1	4.01 µM
CCOc1cc(C(=O)CSc2nnc(CNc3ccc(Cl)cc3)o2)ccc1NC(=O)CC	9.47 µM (inactive)
O=[N+]([O-])c1ccc(-c2nn(-c3ccccc3)cc2/C=N/n2c(-c3cccs3)n[nH]c2=S)cc1	> 10 µM (inactive)
O=C(O)c1ccc(N/N=C/c2ccc3nccnc3c2)cc1	6.06 µM (inactive)
CN(C)c1ccc(C(CNS(=O)(=O)c2ccc(F)c(F)c2)c2c[nH]c3ccccc23)cc1 (stereo unspecified)	6.39 µM (inactive)
COc1ccc(-c2[nH]ncc2N=Nc2cc(C)cc(C)c2)cc1	9.27 µM (inactive)
Cc1ccc(OCC(=O)N2CCN(c3nnc(-c4ccc(C)cc4)c4ccccc34)CC2)cc1	8.38 µM (inactive)
FC(F)(F)c1cccc(Sc2nc(-c3ccccc3)nnc2C(F)(F)F)c1	9.58 µM (inactive)
CCn1c(C)nc2cc(-c3nc4n(n3)Cc3ccccc3-4)ccc21	< 0.16 µM (inactive)
NC(=S)n1[nH]c(-c2ccc([N+](=O)[O-])cc2)c(N=Nc2ccc(Cl)cc2)c1=O	5.74 µM (inactive)
COc1ccc(-c2nn(-c3ccccc3)cc2/C=N/NC(=O)c2ccc(Br)o2)cc1	9.29 µM (inactive)
C#CC(=O)N(c1cccc(OC)c1)C(C(=O)NC1CCCC1)c1cccs1 (stereo unspecified)	4.53 µM
Cc1ccc(NC(=O)O/N=C/c2c(C)nn(C(C)(C)C)c2C)cc1Cl	< 0.16 µM
Cc1nc(SCC(=O)Nc2cc(C)on2)c2c3c(sc2n1)CCCC3	> 10 µM (inactive)
